In patent US11572341B2, “Biguanide compound and use thereof” (ImmunoMet Therapeutics Inc., priority 2014, dated 2023):

System: HCT116 cells
Assay: Inhibitory effect against cancer cell proliferation (MTT)
Type: cell-based, human
Details: Homo sapiens, HCT-116; HCT116, MTT, 48 hours; read-out: IC50 (uM) @ HCT116
Experimental: The formazane crystals thus formed were dissolved using dimethyl sulfoxide (DMSO) and absorbance of the solution was measured at 560 nm. After culturing for 48 hours, […] synthesized in Examples was indicated as cell viability (%) according to each treated concentration.

| SMILES | IC50 |
| --- | --- |
| Cl.N=C(N)NC(=N)N(C1CCCCC1)C1CCCCC1 [Example 136, N1,N1-dicyclohexyl Biguanide Hydrochloride] | > 100 µM |
| CC1CCN(C(=N)NC(=N)NCc2cccc(C(F)(F)F)c2)CC1.Cl [Example 60, N1-(4-methyl)piperidin-N5-(3-trifluoromethyl)benzyl Biguanide Hydrochloride] | 15.4 µM |
| Cl.N=C(N)NC(=N)N1CCCC1 [Example 126, N1-pyrrolidine Biguanide Hydrochloride] | > 100 µM |
| CCCN(CCC)C(=N)NC(=N)N1CCCCC1.Cl [Example 8, N1,N1-dipropyl-N5-piperidine Biguanide Hydrochloride] | > 100 µM |
| CN1CCN(C(=N)NC(=N)Nc2ccccc2F)CC1.Cl [Example 34, N1-(4-methyl)piperazin-N5-(2-fluoro)phenyl Biguanide Hydrochloride] | > 100 µM |
| CCCCNC(=N)NC(=N)N1CCN(C)CC1.Cl [Example 36, N1-(4-methy)piperazin-N5-butyl Biguanide Hydrochloride] | > 100 µM |
| CCCc1ccccc1NC(=N)NC(=N)N.Cl [Example 121, N1-(2-propyl)phenyl Biguanide Hydrochloride] | > 100 µM |
| COc1ccc(NC(=N)NC(=N)N2CCCCC2)cc1.Cl [Example 73, N1-piperidin-N5-(4-methoxy)phenyl Biguanide Hydrochloride] | > 100 µM |
| Cl.N=C(NC(=N)N1CC=CC1)Nc1cccnc1 [Example 66, N1-2,5-dihydro-1H-pyrrol-N5-pyridin-3-yl Biguanide Hydrochloride] | > 100 µM |
| Cl.N=C(N)NC(=N)Nc1ccccc1C(F)(F)F [Example 119, N1-(2-trifluoromethyl)phenyl Biguanide Hydrochloride] | 3.5 µM |
| CC1CCN(C(=N)NC(=N)Nc2ccc(C(F)(F)F)c(F)c2)CC1.Cl [Example 57, N1-(4-methyl)piperidin-N5-(3-fluoro-4-trifluoromethyl)phenyl Biguanide Hydrochloride] | 2.5 µM |
| CCCc1ccccc1NC(=N)NC(=N)N1CCCCC1.Cl [Example 74, N1-piperidin-N5-(2-propyl)phenyl Biguanide Hydrochloride] | 48.3 µM |
| CCOC1CCN(C(=N)NC(=N)Nc2cccc(C(F)(F)F)c2)CC1.Cl [Example 24, N1-(4-ethoxy)piperidin-N5-(3-trifluoromethyl)phenyl Biguanide Hydrochloride] | 11.5 µM |
| CCCNC(=N)NC(=N)N.Cl [Example 114, N1-propyl Biguanide Hydrochloride] | 118 µM |
| CCCCN(C)C(=N)NC(=N)N.Cl [Example 134, N1-methyl-N1-butyl Biguanide Hydrochloride] | > 100 µM |

System: AMPKa [pT172]
Assay: AMPKa activation [pT172] in MCF7 cell
Type: cell-based
Details: 5 uM

| SMILES | AMPKa activation [pT172] (Unit/ml) @ MCF7 cell |
| --- | --- |
| CC1CCN(C(=N)NC(=N)NCc2cccc(C(F)(F)F)c2)CC1.Cl [Example 60, N1-(4-methyl)piperidin-N5-(3-trifluoromethyl)benzyl Biguanide Hydrochloride] | 4.6 Unit/ml |
| Cl.N=C(N)NC(=N)N1CCCC1 [Example 126, N1-pyrrolidine Biguanide Hydrochloride] | 6.1 Unit/ml |
| CCCN(CCC)C(=N)NC(=N)N1CCCCC1.Cl [Example 8, N1,N1-dipropyl-N5-piperidine Biguanide Hydrochloride] | 10.8 Unit/ml |
| CN1CCN(C(=N)NC(=N)Nc2ccccc2F)CC1.Cl [Example 34, N1-(4-methyl)piperazin-N5-(2-fluoro)phenyl Biguanide Hydrochloride] | 4.5 Unit/ml |
| CCCCNC(=N)NC(=N)N1CCN(C)CC1.Cl [Example 36, N1-(4-methy)piperazin-N5-butyl Biguanide Hydrochloride] | 5.5 Unit/ml |
| COc1ccc(NC(=N)NC(=N)N2CCCCC2)cc1.Cl [Example 73, N1-piperidin-N5-(4-methoxy)phenyl Biguanide Hydrochloride] | 3.9 Unit/ml |
| Cl.N=C(NC(=N)N1CC=CC1)Nc1cccnc1 [Example 66, N1-2,5-dihydro-1H-pyrrol-N5-pyridin-3-yl Biguanide Hydrochloride] | 3.3 Unit/ml |
| Cl.N=C(N)NC(=N)Nc1ccccc1C(F)(F)F [Example 119, N1-(2-trifluoromethyl)phenyl Biguanide Hydrochloride] | 6.9 Unit/ml |
| CC1CCN(C(=N)NC(=N)Nc2ccc(C(F)(F)F)c(F)c2)CC1.Cl [Example 57, N1-(4-methyl)piperidin-N5-(3-fluoro-4-trifluoromethyl)phenyl Biguanide Hydrochloride] | 6.7 Unit/ml |
| CCCc1ccccc1NC(=N)NC(=N)N1CCCCC1.Cl [Example 74, N1-piperidin-N5-(2-propyl)phenyl Biguanide Hydrochloride] | 4.9 Unit/ml |
| CCOC1CCN(C(=N)NC(=N)Nc2cccc(C(F)(F)F)c2)CC1.Cl [Example 24, N1-(4-ethoxy)piperidin-N5-(3-trifluoromethyl)phenyl Biguanide Hydrochloride] | 5.2 Unit/ml |

Same assay, conditions: 10 uM

| SMILES | AMPKa activation [pT172] (Unit/ml) @ MCF7 cell |
| --- | --- |
| CC1CCN(C(=N)NC(=N)NCc2cccc(C(F)(F)F)c2)CC1.Cl [Example 60, N1-(4-methyl)piperidin-N5-(3-trifluoromethyl)benzyl Biguanide Hydrochloride] | 7.8 Unit/ml |
| Cl.N=C(N)NC(=N)N1CCCC1 [Example 126, N1-pyrrolidine Biguanide Hydrochloride] | 6.4 Unit/ml |
| CCCN(CCC)C(=N)NC(=N)N1CCCCC1.Cl [Example 8, N1,N1-dipropyl-N5-piperidine Biguanide Hydrochloride] | 12.5 Unit/ml |
| CN1CCN(C(=N)NC(=N)Nc2ccccc2F)CC1.Cl [Example 34, N1-(4-methyl)piperazin-N5-(2-fluoro)phenyl Biguanide Hydrochloride] | 3.7 Unit/ml |
| CCCCNC(=N)NC(=N)N1CCN(C)CC1.Cl [Example 36, N1-(4-methy)piperazin-N5-butyl Biguanide Hydrochloride] | 5.8 Unit/ml |
| COc1ccc(NC(=N)NC(=N)N2CCCCC2)cc1.Cl [Example 73, N1-piperidin-N5-(4-methoxy)phenyl Biguanide Hydrochloride] | 4.5 Unit/ml |
| Cl.N=C(NC(=N)N1CC=CC1)Nc1cccnc1 [Example 66, N1-2,5-dihydro-1H-pyrrol-N5-pyridin-3-yl Biguanide Hydrochloride] | 3.7 Unit/ml |
| Cl.N=C(N)NC(=N)Nc1ccccc1C(F)(F)F [Example 119, N1-(2-trifluoromethyl)phenyl Biguanide Hydrochloride] | 8.8 Unit/ml |
| CC1CCN(C(=N)NC(=N)Nc2ccc(C(F)(F)F)c(F)c2)CC1.Cl [Example 57, N1-(4-methyl)piperidin-N5-(3-fluoro-4-trifluoromethyl)phenyl Biguanide Hydrochloride] | 12.1 Unit/ml |
| CCCc1ccccc1NC(=N)NC(=N)N1CCCCC1.Cl [Example 74, N1-piperidin-N5-(2-propyl)phenyl Biguanide Hydrochloride] | 5.3 Unit/ml |
| CCOC1CCN(C(=N)NC(=N)Nc2cccc(C(F)(F)F)c2)CC1.Cl [Example 24, N1-(4-ethoxy)piperidin-N5-(3-trifluoromethyl)phenyl Biguanide Hydrochloride] | 4.7 Unit/ml |

Same assay, conditions: 50 uM

| SMILES | AMPKa activation [pT172] (Unit/ml) @ MCF7 cell |
| --- | --- |
| Cl.N=C(N)NC(=N)N(C1CCCCC1)C1CCCCC1 [Example 136, N1,N1-dicyclohexyl Biguanide Hydrochloride] | 5.9 Unit/ml |
| CC1CCN(C(=N)NC(=N)NCc2cccc(C(F)(F)F)c2)CC1.Cl [Example 60, N1-(4-methyl)piperidin-N5-(3-trifluoromethyl)benzyl Biguanide Hydrochloride] | 20.9 Unit/ml |
| Cl.N=C(N)NC(=N)N1CCCC1 [Example 126, N1-pyrrolidine Biguanide Hydrochloride] | 10.7 Unit/ml |
| CCCN(CCC)C(=N)NC(=N)N1CCCCC1.Cl [Example 8, N1,N1-dipropyl-N5-piperidine Biguanide Hydrochloride] | 19.3 Unit/ml |
| CN1CCN(C(=N)NC(=N)Nc2ccccc2F)CC1.Cl [Example 34, N1-(4-methyl)piperazin-N5-(2-fluoro)phenyl Biguanide Hydrochloride] | 7.0 Unit/ml |
| CCCCNC(=N)NC(=N)N1CCN(C)CC1.Cl [Example 36, N1-(4-methy)piperazin-N5-butyl Biguanide Hydrochloride] | 4.8 Unit/ml |
| CCCc1ccccc1NC(=N)NC(=N)N.Cl [Example 121, N1-(2-propyl)phenyl Biguanide Hydrochloride] | 9.0 Unit/ml |
| COc1ccc(NC(=N)NC(=N)N2CCCCC2)cc1.Cl [Example 73, N1-piperidin-N5-(4-methoxy)phenyl Biguanide Hydrochloride] | 9.1 Unit/ml |
| Cl.N=C(NC(=N)N1CC=CC1)Nc1cccnc1 [Example 66, N1-2,5-dihydro-1H-pyrrol-N5-pyridin-3-yl Biguanide Hydrochloride] | 4.1 Unit/ml |
| Cl.N=C(N)NC(=N)Nc1ccccc1C(F)(F)F [Example 119, N1-(2-trifluoromethyl)phenyl Biguanide Hydrochloride] | 8.5 Unit/ml |
| CC1CCN(C(=N)NC(=N)Nc2ccc(C(F)(F)F)c(F)c2)CC1.Cl [Example 57, N1-(4-methyl)piperidin-N5-(3-fluoro-4-trifluoromethyl)phenyl Biguanide Hydrochloride] | cell death |
| CCCc1ccccc1NC(=N)NC(=N)N1CCCCC1.Cl [Example 74, N1-piperidin-N5-(2-propyl)phenyl Biguanide Hydrochloride] | 8.3 Unit/ml |
| CCOC1CCN(C(=N)NC(=N)Nc2cccc(C(F)(F)F)c2)CC1.Cl [Example 24, N1-(4-ethoxy)piperidin-N5-(3-trifluoromethyl)phenyl Biguanide Hydrochloride] | cell death |
| CCCNC(=N)NC(=N)N.Cl [Example 114, N1-propyl Biguanide Hydrochloride] | 6.1 Unit/ml |
| CCCCN(C)C(=N)NC(=N)N.Cl [Example 134, N1-methyl-N1-butyl Biguanide Hydrochloride] | 16.2 Unit/ml |
